Experimental data published in ChEMBL document CHEMBL4417631, “Oral peptide inhibitors of interleukin-23 receptor and their use to treat inflammatory bowel diseases” (2017).
Where a SMILES comes first, the peptide text is derived from it. [ ]: non-standard residue; d: D form. 2Nal = N[C@@H](Cc1ccc2ccccc2c1)C(=O)O; Pen = CC(C)(S)[C@H](N)C(=O)O; αMeK = C[C@](N)(CCCCN)C(=O)O

Key:
Interleukin-23 receptor [1] = biological target: T1, Interleukin-23 receptor (Homo sapiens, UniProt Q5VWK5); experiment: Inhibition of interleukin-23 binding to human interleukin-23 receptor incubated for 2 hrs by competitive binding ELISA
T1 sequence (Q5VWK5 whole entry): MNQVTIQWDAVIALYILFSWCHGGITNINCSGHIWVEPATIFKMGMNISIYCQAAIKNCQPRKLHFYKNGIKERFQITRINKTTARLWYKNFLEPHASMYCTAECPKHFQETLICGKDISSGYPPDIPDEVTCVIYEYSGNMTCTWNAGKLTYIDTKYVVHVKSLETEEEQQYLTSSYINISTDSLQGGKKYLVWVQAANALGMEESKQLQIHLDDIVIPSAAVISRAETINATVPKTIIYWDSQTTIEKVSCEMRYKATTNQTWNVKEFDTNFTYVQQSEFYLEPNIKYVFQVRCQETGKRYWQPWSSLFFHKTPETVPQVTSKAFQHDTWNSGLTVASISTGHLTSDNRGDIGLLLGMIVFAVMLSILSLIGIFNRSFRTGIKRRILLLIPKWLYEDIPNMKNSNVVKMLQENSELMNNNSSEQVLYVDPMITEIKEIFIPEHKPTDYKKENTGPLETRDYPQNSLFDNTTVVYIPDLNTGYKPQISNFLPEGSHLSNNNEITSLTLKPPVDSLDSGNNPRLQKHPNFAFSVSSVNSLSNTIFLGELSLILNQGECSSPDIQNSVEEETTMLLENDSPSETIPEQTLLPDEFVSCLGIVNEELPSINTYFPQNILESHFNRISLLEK

Interleukin-23 receptor [2] = biological target: T1, Interleukin-23 receptor; experiment: Inhibition of interleukin-23 receptor in human DB cells assessed as reduction in IL-23-stimulated STAT3 phosphorylation incubated for 30 mins by HTRF assay; type: cell-based
[3] = Inhibition of interleukin-23 binding to rat interleukin-23 receptor incubated for 2 hrs by competitive binding ELISA
[4] = Half life in simulated intestinal fluid at 20 uM by LC-MS/MS analysis; type: ADME

IC50 (Interleukin-23 receptor [1]) | IC50 (Interleukin-23 receptor [2]) | IC50 [3] | half-life at 20 µM [4] | Compound
25 to 100 nM | 10 to 25 nM | 25 to 100 nM | > 6 h | COc1ccc(C[C@H](NC(=O)[C@@H](NC(=O)[C@H](CCC(N)=O)NC(=O)[C@H](Cc2c[nH]c3ccccc23)NC(=O)[C@@H](NC(=O)[C@H](CCC(N)=O)NC(=O)[C@@H](NC(C)=O)C(C)(C)S)[C@@H](C)O)C(C)(C)S)C(=O)N[C@@H](Cc2c[nH]c3ccccc23)C(=O)N[C@@](C)(CCCCN)C(=O)N[C@@H](CCCCNC(C)=O)C(=O)N[C@@H](CC(N)=O)C(=O)NCC(N)=O)cc1
25 to 100 nM | < 10 nM | 100 to 1000 nM | 3 to 6 h | CC(=O)N[C@H](C(=O)N[C@@H](CCC(N)=O)C(=O)N[C@H](C(=O)N[C@@H](Cc1c[nH]c2ccccc12)C(=O)N[C@@H](CCC(N)=O)C(=O)N[C@H](C(=O)N[C@@H](Cc1ccc(O)cc1)C(=O)N[C@@H](Cc1ccc2ccccc2c1)C(=O)N[C@@](C)(CCCCN)C(=O)N[C@@H](CCC(=O)O)C(=O)N[C@@H](CC(N)=O)C(=O)NCC(N)=O)C(C)(C)S)[C@@H](C)O)C(C)(C)S
25 to 100 nM | < 10 nM | 100 to 1000 nM | 2 to 3 h | CC(=O)NCCCC[C@H](NC(=O)[C@](C)(CCCN)NC(=O)[C@H](Cc1ccc2ccccc2c1)NC(=O)[C@H](Cc1ccc2ccccc2c1)NC(=O)[C@@H]1CSCC[C@H](NC(C)=O)C(=O)N[C@@H](CCC(N)=O)C(=O)N[C@@H]([C@@H](C)O)C(=O)N[C@@H](Cc2c[nH]c3ccccc23)C(=O)N[C@@H](CCC(N)=O)C(=O)N1)C(=O)N[C@@H](CC(N)=O)C(=O)NCC(N)=O
25 to 100 nM | 25 to 100 nM | 100 to 1000 nM | > 6 h | COc1ccc(C[C@H](NC(=O)[C@@H](NC(=O)[C@H](CCC(N)=O)NC(=O)[C@H](Cc2c[nH]c3ccccc23)NC(=O)[C@@H](NC(=O)[C@H](CCC(N)=O)NC(=O)[C@@H](NC(C)=O)C(C)(C)S)[C@@H](C)O)C(C)(C)S)C(=O)N[C@@H](Cc2cccc3ccccc23)C(=O)N[C@@](C)(CCCCN)C(=O)N[C@@H](CCCCNC(C)=O)C(=O)N[C@@H](CC(N)=O)C(=O)NCC(N)=O)cc1
100 to 1000 nM | 25 to 100 nM | 100 to 1000 nM | 3 to 6 h | CC(=O)N[C@H](C(=O)N[C@@H](CCC(N)=O)C(=O)N[C@H](C(=O)N[C@@H](Cc1c[nH]c2ccccc12)C(=O)N[C@@H](CCC(N)=O)C(=O)N[C@H](C(=O)N[C@@H](Cc1ccc(O)cc1)C(=O)N[C@@H](Cc1cccc2ccccc12)C(=O)N[C@@](C)(CCCN)C(=O)N[C@@H](CCC(=O)O)C(=O)N[C@@H](CC(N)=O)C(=O)NCC(N)=O)C(C)(C)S)[C@@H](C)O)C(C)(C)S
< 10 nM | < 10 nM | < 10 nM |  | CC(=O)NCCCC[C@](C)(NC(=O)[C@H](Cc1ccc2ccccc2c1)NC(=O)[C@H](Cc1ccc(OCCNC(C)=O)cc1)NC(=O)[C@@H]1CSCC[C@H](NC(C)=O)C(=O)N[C@@H](CCC(N)=O)C(=O)N[C@@H]([C@@H](C)O)C(=O)N[C@@H](Cc2c[nH]c3ccccc23)C(=O)N[C@@H](CCC(N)=O)C(=O)N1)C(=O)N[C@@H](CCC(=O)O)C(=O)N[C@@H](CC(N)=O)C(=O)N[C@@H](CC(N)=O)C(N)=O

The next lines start with the compound.

Compound | IC50 (Interleukin-23 receptor [1]) | IC50 (Interleukin-23 receptor [2]) | IC50 [3] | half-life at 20 µM [4]
CC(=O)NCCCC[C@H](NC(=O)[C@](C)(CCCN)NC(=O)[C@H](Cc1c[nH]c2ccccc12)NC(=O)[C@H](Cc1ccc(O)cc1)NC(=O)[C@@H]1CSCC[C@H](NC(C)=O)C(=O)N[C@@H](CCC(N)=O)C(=O)N[C@@H]([C@@H](C)O)C(=O)N[C@@H](Cc2c[nH]c3ccccc23)C(=O)N[C@@H](CCC(N)=O)C(=O)N1)C(=O)N[C@@H](CC(N)=O)C(=O)NCC(N)=O | 25 to 100 nM | 10 to 25 nM | 25 to 100 nM | 3 to 6 h
COc1ccc(C[C@H](NC(=O)[C@@H]2CSCC[C@H](NC(C)=O)C(=O)N[C@@H](CCC(N)=O)C(=O)N[C@@H]([C@@H](C)O)C(=O)N[C@@H](Cc3c[nH]c4ccccc34)C(=O)N[C@@H](CCC(N)=O)C(=O)N2)C(=O)N[C@@H](Cc2ccc3ccccc3c2)C(=O)N[C@H](CC(N)=O)C(=O)N[C@@H](CCCCNC(C)=O)C(=O)N[C@@H](CC(N)=O)C(=O)NCC(N)=O)cc1 | 25 to 100 nM | 25 to 100 nM | 100 to 1000 nM | > 6 h
CC(=O)N[C@@H](CS)C(=O)N[C@@H](CCC(N)=O)C(=O)N[C@H](C(=O)N[C@@H](Cc1c[nH]c2ccccc12)C(=O)N[C@@H](CCC(N)=O)C(=O)N[C@H](C(=O)N[C@@H](Cc1ccc(O)cc1)C(=O)N[C@@H](Cc1c[nH]c2ccccc12)C(=O)N[C@@](C)(CC(C)C)C(=O)N[C@@H](CCC(=O)O)C(=O)N[C@@H](CC(N)=O)C(=O)NCC(N)=O)C(C)(C)S)[C@@H](C)O | 100 to 1000 nM |  | 100 to 1000 nM | < 1 h
CC(=O)NCCCC[C@H](NC(=O)[C@](C)(CCCCN)NC(=O)[C@H](Cc1ccc2ccccc2c1)NC(=O)[C@H](Cc1ccc2ccccc2c1)NC(=O)[C@@H]1CSCC[C@H](NC(C)=O)C(=O)N[C@@H](CCC(N)=O)C(=O)N[C@@H]([C@@H](C)O)C(=O)N[C@@H](Cc2c[nH]c3ccccc23)C(=O)N[C@@H](CCC(N)=O)C(=O)N1)C(=O)N[C@@H](CC(N)=O)C(=O)NCC(N)=O | 25 to 100 nM | 10 to 25 nM | 25 to 100 nM | 3 to 6 h
CC(=O)N[C@H]1CCSC[C@@H](C(=O)N[C@@H](Cc2ccc(O)cc2)C(=O)N[C@@H](Cc2c[nH]c3ccccc23)C(=O)N[C@@](C)(CC(C)C)C(=O)N[C@@H](CCC(=O)O)C(=O)N[C@@H](CC(N)=O)C(=O)NCC(N)=O)NC(=O)[C@H](CCC(N)=O)NC(=O)[C@H](Cc2c[nH]c3ccccc23)NC(=O)[C@H]([C@@H](C)O)NC(=O)[C@H](CCC(N)=O)NC1=O | 10 to 25 nM | < 10 nM | 25 to 100 nM | < 1 h
CC(=O)N[C@H](C(=O)N[C@@H](CCC(N)=O)C(=O)N[C@H](C(=O)N[C@@H](Cc1c[nH]c2ccccc12)C(=O)N[C@@H](CCC(N)=O)C(=O)N[C@H](C(=O)N[C@@H](Cc1ccc2ccccc2c1)C(=O)N[C@@H](Cc1ccc2ccccc2c1)C(=O)N[C@@](C)(CCCCN)C(=O)N[C@@H](CCC(=O)O)C(=O)N[C@@H](CC(N)=O)C(=O)NCC(N)=O)C(C)(C)S)[C@@H](C)O)C(C)(C)S (Ac-[Pen]QTWQ[Pen][2Nal][2Nal][αMeK]ENG-NH2) | 100 to 1000 nM | 10 to 25 nM | 100 to 1000 nM | 3 to 6 h
CC(=O)NCCCC[C@H](NC(=O)[C@H](CCC(C)C)NC(=O)[C@H](Cc1ccc2ccccc2c1)NC(=O)[C@H](Cc1ccc(OCCN)cc1)NC(=O)[C@@H]1CSCC[C@H](NC(C)=O)C(=O)N[C@@H](CCC(N)=O)C(=O)N[C@@H]([C@@H](C)O)C(=O)N[C@@H](Cc2c[nH]c3ccccc23)C(=O)N[C@@H](CCC(N)=O)C(=O)N1)C(=O)N[C@@H](CC(N)=O)C(=O)NCCC(N)=O | < 10 nM | < 10 nM | < 10 nM | < 1 h
COc1ccc(C[C@H](NC(=O)[C@@H](NC(=O)[C@H](CCC(N)=O)NC(=O)[C@H](Cc2c[nH]c3ccccc23)NC(=O)[C@@H](NC(=O)[C@H](CCC(N)=O)NC(=O)[C@@H](NC(=O)CCCC(=O)O)C(C)(C)S)[C@@H](C)O)C(C)(C)S)C(=O)N[C@@H](Cc2ccc3ccccc3c2)C(=O)N[C@@](C)(CCCCN)C(=O)N[C@@H](CCCCNC(C)=O)C(=O)N[C@@H](CC(N)=O)C(=O)NCC(N)=O)cc1 | 25 to 100 nM | 10 to 25 nM | 25 to 100 nM | 
